# Assay results from ChEMBL document CHEMBL5113392, “Novel hybrid pyrrolidinedione-thiazolidinones as potential anticancer agents: Synthesis and biological evaluation” (Eur J Med Chem, 2022).
# Active and inactive are the calls of the source. The calls are words filed in the database; no cut-off is given here.
# Legend:
# SK-OV-3 [1] = test: Anticancer activity against human SK-OV-3 cells assessed as growth inhibition incubated for 48 hrs by SRB assay; assay type: functional
# KB 3-1 = test: Anticancer activity against human KB 3-1 cells assessed as cell growth inhibition incubated for 72 hrs by MTT assay; assay type: functional
# HOP-62 [2] = test: Anticancer activity against human HOP-62 cells assessed as growth inhibition incubated for 48 hrs by SRB assay; assay type: functional
# BT-549 [3] = test: Anticancer activity against human BT-549 cells assessed as total growth inhibition incubated for 48 hrs by SRB assay; assay type: functional
# OVCAR-8 [4] = test: Anticancer activity against human OVCAR-8 cells assessed as total growth inhibition incubated for 48 hrs by SRB assay; assay type: functional
# NCI-H460 [5] = test: Anticancer activity against human NCI-H460 cells assessed as growth inhibition incubated for 48 hrs by SRB assay; assay type: functional
# SF-268 [6] = test: Anticancer activity against human SF-268 cells assessed as total growth inhibition incubated for 48 hrs by SRB assay; assay type: functional
# HCT-15 = test: Anticancer activity against human HCT-15 cells assessed as total growth inhibition incubated for 48 hrs by SRB assay; assay type: functional
# [7] = Anticancer activity against human HCT116-p53-null cells assessed as cell growth inhibition incubated for 72 hrs by MTT assay; assay type: functional
# Jurkat = test: Induction of morphological changes in human Jurkat cells assessed as plasma membrane blebbing incubated for 24 hrs by Hoechst 33258 and propidium iodide staining based fluorescence microscopy; assay type: functional, cell-based
# SK-OV-3 [8] = test: Anticancer activity against human SK-OV-3 cells assessed as total growth inhibition incubated for 48 hrs by SRB assay; assay type: functional
# SR [9] = test: Anticancer activity against human SR cells assessed as growth inhibition incubated for 48 hrs by SRB assay; assay type: functional
# RXF 393 [10] = test: Anticancer activity against human RXF 393 cells assessed as inhibition of cell growth at 10 uM incubated for 48 hrs by SRB assay; assay type: functional; conditions: RXF 393, 48 h, values are per cent of control
# [11] = Selectivity index, ratio of GI50 for human HaCaT cells to GI50 for human SK-OV-3 cells; assay type: toxicity; conditions: HaCaT cells versus SK-OV-3 cells, read-out: RatioGI50
# HeLa = test: Anticancer activity against human HeLa cells assessed as cell growth inhibition incubated for 72 hrs by MTT assay; assay type: functional
# SF-295 = test: Anticancer activity against human SF-295 cells assessed as lethality incubated for 48 hrs by SRB assay; assay type: functional; conditions: read-out: LC50 (the source's name)
# Hs-578T = test: Anticancer activity against human Hs-578T cells assessed as lethality incubated for 48 hrs by SRB assay; assay type: functional; conditions: read-out: LC50 (the source's name)
# SK-OV-3 [12] = test: Anticancer activity against human SK-OV-3 cells assessed as lethality incubated for 48 hrs by SRB assay; assay type: functional; conditions: read-out: LC50 (the source's name)
# [13] = Selectivity index, ratio of GI50 for human HaCaT cells to GI50 for human HeLa cells; assay type: toxicity; conditions: HaCaT cells versus HeLa cells, read-out: RatioGI50
# SR [14] = test: Anticancer activity against human SR cells assessed as lethality incubated for 48 hrs by SRB assay; assay type: functional; conditions: read-out: LC50 (the source's name)
# M14 = test: Anticancer activity against human M14 cells assessed as lethality incubated for 48 hrs by SRB assay; assay type: functional; conditions: read-out: LC50 (the source's name)
# COLO 205 = test: Anticancer activity against human COLO 205 cells assessed as total growth inhibition incubated for 48 hrs by SRB assay; assay type: functional
# A549 = test: Anticancer activity against human A549 cells assessed as lethality incubated for 48 hrs by SRB assay; assay type: functional; conditions: read-out: LC50 (the source's name)
# MOLT-4 = test: Anticancer activity against human MOLT-4 cells assessed as lethality incubated for 48 hrs by SRB assay; assay type: functional; conditions: read-out: LC50 (the source's name)
# IGROV-1 = test: Anticancer activity against human IGROV-1 cells assessed as growth inhibition incubated for 48 hrs by SRB assay; assay type: functional
# SF-539 = test: Anticancer activity against human SF-539 cells assessed as total growth inhibition incubated for 48 hrs by SRB assay; assay type: functional
# HOP-62 [15] = test: Anticancer activity against human HOP-62 cells assessed as total growth inhibition incubated for 48 hrs by SRB assay; assay type: functional
# K562 [16] = test: Anticancer activity against human K562 cells assessed as growth inhibition incubated for 48 hrs by SRB assay; assay type: functional
# SF-268 [17] = test: Anticancer activity against human SF-268 cells assessed as growth inhibition incubated for 48 hrs by SRB assay; assay type: functional
# HCT-116 [18] = test: Anticancer activity against human HCT-116 cells assessed as lethality incubated for 48 hrs by SRB assay; assay type: functional; conditions: read-out: LC50 (the source's name)
# RXF 393 [19] = test: Anticancer activity against human RXF 393 cells assessed as total growth inhibition incubated for 48 hrs by SRB assay; assay type: functional
# Lymphocyte = test: Induction of morphological changes in mitogen activated human peripheral blood lymphocytes assessed as increase in number of single cells incubated for 24 hrs by Hoechst 33258 and propidium iodide staining based fluorescence microscopy; assay type: toxicity, cell-based
# K562 [20] = test: Anticancer activity against human K562 cells assessed as total growth inhibition incubated for 48 hrs by SRB assay; assay type: functional
# NCI-H460 [21] = test: Anticancer activity against human NCI-H460 cells assessed as lethality incubated for 48 hrs by SRB assay; assay type: functional; conditions: read-out: LC50 (the source's name)
# Malme-3M [22] = test: Anticancer activity against human Malme-3M cells assessed as growth inhibition incubated for 48 hrs by SRB assay; assay type: functional
# HCT-116 [23] = test: Anticancer activity against human HCT-116 cells assessed as cell growth inhibition incubated for 72 hrs by MTT assay; assay type: functional
# TK-10 = test: Anticancer activity against human TK-10 cells assessed as total growth inhibition incubated for 48 hrs by SRB assay; assay type: functional
# OVCAR-8 [24] = test: Anticancer activity against human OVCAR-8 cells assessed as lethality incubated for 48 hrs by SRB assay; assay type: functional; conditions: read-out: LC50 (the source's name)
# SN12C = test: Anticancer activity against human SN12C cells assessed as lethality incubated for 48 hrs by SRB assay; assay type: functional; conditions: read-out: LC50 (the source's name)
# BT-549 [25] = test: Anticancer activity against human BT-549 cells assessed as growth inhibition incubated for 48 hrs by SRB assay; assay type: functional
# MDA-MB-231 [26] = test: Anticancer activity against human MDA-MB-231 cells assessed as growth inhibition incubated for 48 hrs by SRB assay; assay type: functional
# SK-MEL-28 = test: Anticancer activity against human SK-MEL-28 cells assessed as total growth inhibition incubated for 48 hrs by SRB assay; assay type: functional
# NCI-H23 = test: Anticancer activity against human NCI-H23 cells assessed as growth inhibition incubated for 48 hrs by SRB assay; assay type: functional
# [27] = Cytotoxicity against mitogen activated human peripheral blood lymphocytes assessed as cell growth inhibition incubated for 24 hrs by MTT assay; assay type: toxicity, cell-based, Lymphocyte
# 786-0 = test: Anticancer activity against human 786-0 cells assessed as growth inhibition incubated for 48 hrs by SRB assay; assay type: functional
# EKVX = test: Anticancer activity against human EKVX cells assessed as total growth inhibition incubated for 48 hrs by SRB assay; assay type: functional
# MDA-MB-231 [28] = test: Anticancer activity against human MDA-MB-231 cells assessed as lethality incubated for 48 hrs by SRB assay; assay type: functional; conditions: read-out: LC50 (the source's name)
# Malme-3M [29] = test: Anticancer activity against human Malme-3M cells assessed as lethality incubated for 48 hrs by SRB assay; assay type: functional; conditions: read-out: LC50 (the source's name)
# HL-60 = test: Anticancer activity against human HL-60 cells assessed as lethality incubated for 48 hrs by SRB assay; assay type: functional; conditions: read-out: LC50 (the source's name)
# HCC 2998 = test: Anticancer activity against human HCC 2998 cells assessed as total growth inhibition incubated for 48 hrs by SRB assay; assay type: functional
smiles,measurement,setting,value
O=C1CC(N2C(=O)/C(=C/C(Cl)=C/c3ccc([N+](=O)[O-])cc3)SC2=S)C(=O)N1c1ccc(Cl)cc1 (stereo not given),GI50,SK-OV-3 [1],3.56 µM
same,GI50,KB 3-1,70.3 µM
same,GI50,HOP-62 [2],1.73 µM
same,TGI,BT-549 [3],3.74 µM
same,TGI,OVCAR-8 [4],> 100 µM
same,GI50,NCI-H460 [5],3.3 µM
same,TGI,SF-268 [6],> 100 µM
same,TGI,HCT-15,8.2 µM
same,GI50,[7],6 µM
same,Activity,Jurkat,Active
same,TGI,SK-OV-3 [8],> 100 µM
same,GI50,SR [9],0.544 µM
same,"growth, % of control at 10 µM",RXF 393 [10],-64.1%
same,selectivity ratio,[11],1.52
same,GI50,HeLa,6.65 µM
same,CC50,SF-295,7.51 µM
same,CC50,Hs-578T,> 100 µM
same,CC50,SK-OV-3 [12],> 100 µM
same,selectivity ratio,[13],15
same,CC50,SR [14],57.6 µM
same,CC50,M14,> 100 µM
same,TGI,COLO 205,3.76 µM
same,CC50,A549,> 100 µM
same,CC50,MOLT-4,62.6 µM
same,GI50,IGROV-1,1.03 µM
same,TGI,SF-539,4.14 µM
same,TGI,HOP-62 [15],5.5 µM
same,GI50,K562 [16],0.692 µM
same,GI50,SF-268 [17],3.07 µM
same,CC50,HCT-116 [18],6.85 µM
same,TGI,RXF 393 [19],2.72 µM
same,Activity,Lymphocyte,Toxic
same,TGI,K562 [20],11.6 µM
same,CC50,NCI-H460 [21],> 100 µM
same,GI50,Malme-3M [22],3.09 µM
same,GI50,HCT-116 [23],9.18 µM
same,TGI,TK-10,8.63 µM
same,CC50,OVCAR-8 [24],> 100 µM
same,CC50,SN12C,> 100 µM
same,GI50,BT-549 [25],1.75 µM
same,GI50,MDA-MB-231 [26],3.75 µM
same,TGI,SK-MEL-28,4.02 µM
same,GI50,NCI-H23,1.64 µM
same,GI50 at 24 h,[27],36.8 µM
same,GI50,786-0,1.63 µM
same,TGI,EKVX,> 100 µM
same,CC50,MDA-MB-231 [28],> 100 µM
same,CC50,Malme-3M [29],> 100 µM
same,CC50,HL-60,> 100 µM
same,TGI,HCC 2998,3.03 µM
O=C1CC(N2C(=O)/C(=C/C(Cl)=C/c3ccc([N+](=O)[O-])cc3)SC2=S)C(=O)N1c1ccc(O)cc1 (stereo not given),GI50,SK-OV-3 [1],2.99 µM
same,GI50,KB 3-1,8 µM
same,GI50,HOP-62 [2],2.26 µM
same,TGI,BT-549 [3],4.21 µM
same,TGI,OVCAR-8 [4],14.2 µM
same,GI50,NCI-H460 [5],2.55 µM
same,TGI,SF-268 [6],6.99 µM
same,TGI,HCT-15,1.95 µM
same,GI50,[7],5.65 µM
same,Activity,Jurkat,Active
same,TGI,SK-OV-3 [8],9.26 µM
same,GI50,SR [9],0.394 µM
same,"growth, % of control at 10 µM",RXF 393 [10],-70.5%
same,selectivity ratio,[11],0.74
same,GI50,HeLa,6.13 µM
same,CC50,SF-295,5.54 µM
same,CC50,Hs-578T,> 100 µM
same,CC50,SK-OV-3 [12],32 µM
same,selectivity ratio,[13],12
same,CC50,SR [14],> 100 µM
same,CC50,M14,7.51 µM
same,TGI,COLO 205,5.04 µM
same,CC50,A549,50.8 µM
same,CC50,MOLT-4,> 100 µM
same,GI50,IGROV-1,1.2 µM
same,TGI,SF-539,3.81 µM
same,TGI,HOP-62 [15],6.63 µM
same,GI50,K562 [16],0.603 µM
same,GI50,SF-268 [17],2.43 µM
same,CC50,HCT-116 [18],5.22 µM
same,TGI,RXF 393 [19],3.22 µM
same,Activity,Lymphocyte,Toxic
same,TGI,K562 [20],9.55 µM
same,CC50,NCI-H460 [21],39.5 µM
same,GI50,Malme-3M [22],2.31 µM
same,GI50,HCT-116 [23],4.52 µM
same,TGI,TK-10,3.79 µM
same,CC50,OVCAR-8 [24],> 100 µM
same,CC50,SN12C,24.6 µM
same,GI50,BT-549 [25],2.03 µM
same,GI50,MDA-MB-231 [26],2.14 µM
same,TGI,SK-MEL-28,4.2 µM
same,GI50,NCI-H23,1.56 µM
same,GI50 at 24 h,[27],67.1 µM
same,GI50,786-0,1.23 µM
same,TGI,EKVX,11.7 µM
same,CC50,MDA-MB-231 [28],15.9 µM
same,CC50,Malme-3M [29],21 µM
same,CC50,HL-60,> 100 µM
same,TGI,HCC 2998,2.92 µM
